The text below walks through data of ChEMBL document CHEMBL4393686, “InCl3 mediated heteroarylation of indoles and their derivatization via CH activation strategy: Discovery of 2-(1H-indol-3-yl)-quinoxaline derivatives as a new class of PDE4B selective inhibitors for arthritis and/or multiple sclerosis” (Eur J Med Chem, 2019).

The source made the active and inactive calls. No cut-off for these calls is given here.

The species entered for data set [1] is Homo sapiens. In words: Selectivity index, ratio of IC50 for PDE4D2 (unknown origin) to IC50 for recombinant His-tagged human PDE4B expressed in sf9 cells using cAMP as substrate by PDELight HTS cAMP phosphodiesterase Kit based luminometry.
The species entered for data set [2] is Homo sapiens. Briefly: Selectivity for recombinant His-tagged human PDE4B over PDE4C (unknown origin).
The target in data set [3] is T1, 3',5'-cyclic-AMP phosphodiesterase 4B (Homo sapiens, UniProt Q07343). In words: Inhibition of recombinant His-tagged human PDE4B expressed in Sf9 cells using cAMP as substrate preincubated with enzyme for 15 mins followed by substrate addition and incubated for 1 hr by PDELight HTS cAMP phosphodiesterase Kit based luminometry.
Data set [4] concerns the target PDE4C (Homo sapiens, UniProt Q08493). In words: Inhibition of PDE4C (unknown origin) at 100 uM using cAMP as substrate preincubated with enzyme for 15 mins followed by substrate addition and incubated for 1 hr by PDELight HTS cAMP phosphodiesterase Kit based luminometry relative to control. The settings on record: probe cAMP.
Data set [5] concerns the target T1, 3',5'-cyclic-AMP phosphodiesterase 4B. Briefly: Inhibition of human recombinant His-tagged PDE4B expressed in Sf9 cells using cAMP as substrate at 10 uM preincubated with enzyme for 15 mins followed by substrate addition and incubated for 1 hr by PDELight HTS cAMP phosphodiesterase Kit based luminometry relative to control.
Data set [6] addresses 3',5'-cyclic-AMP phosphodiesterase 4D (Homo sapiens, UniProt Q08499). In words: Inhibition of PDE4D2 (unknown origin) using cAMP as substrate preincubated with enzyme for 15 mins followed by substrate addition and incubated for 1 hr by PDELight HTS cAMP phosphodiesterase Kit based luminometry.
The subject of data set [7] is Danio rerio. In words: Anti-sclerotic activity in MOG/CFA-induced zebra fish EAE model assessed as reduction in lesion score at 1 mg/kg, po measured for 7 days. It is filed as functional, organism-based.
Data set [8] relates to Rattus norvegicus. Briefly: Antiarthritic activity in complete Freund's adjuvant-induced Wistar rat arthritis model assessed as reduction in paw volume at 2 mg/kg, ip administered from 11th day to 20th day by vernier caliper analysis. It is filed as functional, organism-based.
The target in data set [9] is 3',5'-cyclic-AMP phosphodiesterase 4A (Homo sapiens) (UniProt P27815). In words: Inhibition of recombinant N-terminal GST tagged human PDE4A4B (2-end aa) expressed in Sf9 cells using FAM-cAMP as substrate at 0.1xIC50 incubated for 60 mins by fluorescence plate reader analysis.
For data set [10] the target is unchanged. Briefly: Inhibition of recombinant N-terminal GST tagged human PDE4A4B (2-end aa) expressed in Sf9 cells using FAM-cAMP as substrate at 10xIC50 incubated for 60 mins by fluorescence plate reader analysis.
Data set [11] is described as follows: Inhibition of recombinant N-terminal GST-tagged full length human PDE4A1A expressed in Sf9 cells using cAMP as substrate at 1xIC50 incubated for 60 mins by fluorescence plate reader analysis.
Data set [12] in a line: Inhibition of recombinant N-terminal GST-tagged full length human PDE4A1A expressed in Sf9 cells using cAMP as substrate at 10xIC50 incubated for 60 mins by fluorescence plate reader analysis.
In data set [13] the target is 3',5'-cyclic-AMP phosphodiesterase 4A (Homo sapiens) (UniProt P27815). Briefly: Inhibition of recombinant N-terminal GST tagged human PDE4A4B (2-end aa) expressed in Sf9 cells using FAM-cAMP as substrate at 1xIC50 incubated for 60 mins by fluorescence plate reader analysis.
Data set [14] in a line: Inhibition of recombinant N-terminal GST-tagged full length human PDE4A1A expressed in Sf9 cells using cAMP as substrate at 0.1xIC50 incubated for 60 mins by fluorescence plate reader analysis.

Sequence of 3',5'-cyclic-AMP phosphodiesterase 4D (Q08499 whole entry): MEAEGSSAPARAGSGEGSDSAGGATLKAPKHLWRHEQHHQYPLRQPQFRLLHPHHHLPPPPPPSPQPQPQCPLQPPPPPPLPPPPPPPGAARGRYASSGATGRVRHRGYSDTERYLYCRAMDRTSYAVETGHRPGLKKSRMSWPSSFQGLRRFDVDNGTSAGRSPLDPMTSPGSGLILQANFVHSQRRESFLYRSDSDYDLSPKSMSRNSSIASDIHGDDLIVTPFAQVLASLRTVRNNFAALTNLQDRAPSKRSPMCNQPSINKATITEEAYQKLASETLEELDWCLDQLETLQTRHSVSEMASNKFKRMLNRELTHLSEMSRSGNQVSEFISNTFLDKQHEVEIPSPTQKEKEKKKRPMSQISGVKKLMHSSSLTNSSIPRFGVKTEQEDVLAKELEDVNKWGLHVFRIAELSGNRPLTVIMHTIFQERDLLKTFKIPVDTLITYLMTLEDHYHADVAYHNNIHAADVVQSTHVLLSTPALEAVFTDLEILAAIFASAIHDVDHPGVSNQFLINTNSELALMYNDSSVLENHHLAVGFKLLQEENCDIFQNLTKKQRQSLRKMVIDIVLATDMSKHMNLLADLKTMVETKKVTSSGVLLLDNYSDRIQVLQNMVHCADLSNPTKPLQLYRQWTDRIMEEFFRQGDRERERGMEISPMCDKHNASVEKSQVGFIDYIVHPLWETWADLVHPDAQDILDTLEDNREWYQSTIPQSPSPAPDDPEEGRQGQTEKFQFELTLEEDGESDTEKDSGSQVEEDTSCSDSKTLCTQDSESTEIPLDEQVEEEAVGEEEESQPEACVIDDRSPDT
Sequence of 3',5'-cyclic-AMP phosphodiesterase 4A (Homo sapiens) (P27815 whole entry): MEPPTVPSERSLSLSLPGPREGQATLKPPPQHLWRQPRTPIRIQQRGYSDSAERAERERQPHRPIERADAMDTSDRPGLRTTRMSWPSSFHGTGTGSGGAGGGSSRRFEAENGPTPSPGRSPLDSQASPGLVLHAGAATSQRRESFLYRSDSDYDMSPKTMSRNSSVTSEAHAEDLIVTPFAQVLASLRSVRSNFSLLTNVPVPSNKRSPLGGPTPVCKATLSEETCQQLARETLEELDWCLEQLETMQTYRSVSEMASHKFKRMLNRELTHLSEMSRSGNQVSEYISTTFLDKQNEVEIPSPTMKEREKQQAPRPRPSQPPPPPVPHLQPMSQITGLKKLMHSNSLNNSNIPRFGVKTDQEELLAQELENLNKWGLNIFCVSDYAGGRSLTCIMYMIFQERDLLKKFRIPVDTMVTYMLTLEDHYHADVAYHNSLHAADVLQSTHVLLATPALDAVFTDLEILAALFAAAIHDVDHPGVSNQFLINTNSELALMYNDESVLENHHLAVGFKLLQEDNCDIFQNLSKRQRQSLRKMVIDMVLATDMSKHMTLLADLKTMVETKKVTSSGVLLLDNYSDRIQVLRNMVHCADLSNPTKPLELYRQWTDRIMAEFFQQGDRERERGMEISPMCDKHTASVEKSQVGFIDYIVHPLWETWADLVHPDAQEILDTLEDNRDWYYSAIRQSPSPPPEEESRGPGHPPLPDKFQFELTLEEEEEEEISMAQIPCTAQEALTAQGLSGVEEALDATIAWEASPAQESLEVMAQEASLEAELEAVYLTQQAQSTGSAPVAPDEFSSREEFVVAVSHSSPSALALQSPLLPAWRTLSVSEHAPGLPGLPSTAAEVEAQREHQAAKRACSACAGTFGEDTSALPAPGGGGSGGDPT
T1 sequence (Q07343 whole entry): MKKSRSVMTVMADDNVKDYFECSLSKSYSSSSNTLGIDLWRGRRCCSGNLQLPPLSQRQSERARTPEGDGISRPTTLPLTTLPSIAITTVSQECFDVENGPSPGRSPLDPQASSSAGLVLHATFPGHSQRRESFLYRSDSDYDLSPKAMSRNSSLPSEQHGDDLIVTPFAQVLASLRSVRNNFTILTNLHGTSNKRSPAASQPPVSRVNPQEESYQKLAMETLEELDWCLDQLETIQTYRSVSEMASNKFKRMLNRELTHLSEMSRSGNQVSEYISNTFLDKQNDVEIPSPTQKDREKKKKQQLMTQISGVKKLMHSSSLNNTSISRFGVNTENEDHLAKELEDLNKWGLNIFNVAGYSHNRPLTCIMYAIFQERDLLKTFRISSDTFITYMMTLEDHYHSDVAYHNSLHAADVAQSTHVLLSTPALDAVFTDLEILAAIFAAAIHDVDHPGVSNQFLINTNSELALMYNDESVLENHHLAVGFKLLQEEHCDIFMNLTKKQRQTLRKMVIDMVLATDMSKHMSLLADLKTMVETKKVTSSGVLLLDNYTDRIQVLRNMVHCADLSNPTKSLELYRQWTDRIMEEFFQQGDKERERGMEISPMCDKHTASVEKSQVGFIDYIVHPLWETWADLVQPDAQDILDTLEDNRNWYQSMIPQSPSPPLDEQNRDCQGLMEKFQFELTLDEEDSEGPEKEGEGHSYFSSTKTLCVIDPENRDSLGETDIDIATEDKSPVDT
Sequence of PDE4C (Q08493 whole entry): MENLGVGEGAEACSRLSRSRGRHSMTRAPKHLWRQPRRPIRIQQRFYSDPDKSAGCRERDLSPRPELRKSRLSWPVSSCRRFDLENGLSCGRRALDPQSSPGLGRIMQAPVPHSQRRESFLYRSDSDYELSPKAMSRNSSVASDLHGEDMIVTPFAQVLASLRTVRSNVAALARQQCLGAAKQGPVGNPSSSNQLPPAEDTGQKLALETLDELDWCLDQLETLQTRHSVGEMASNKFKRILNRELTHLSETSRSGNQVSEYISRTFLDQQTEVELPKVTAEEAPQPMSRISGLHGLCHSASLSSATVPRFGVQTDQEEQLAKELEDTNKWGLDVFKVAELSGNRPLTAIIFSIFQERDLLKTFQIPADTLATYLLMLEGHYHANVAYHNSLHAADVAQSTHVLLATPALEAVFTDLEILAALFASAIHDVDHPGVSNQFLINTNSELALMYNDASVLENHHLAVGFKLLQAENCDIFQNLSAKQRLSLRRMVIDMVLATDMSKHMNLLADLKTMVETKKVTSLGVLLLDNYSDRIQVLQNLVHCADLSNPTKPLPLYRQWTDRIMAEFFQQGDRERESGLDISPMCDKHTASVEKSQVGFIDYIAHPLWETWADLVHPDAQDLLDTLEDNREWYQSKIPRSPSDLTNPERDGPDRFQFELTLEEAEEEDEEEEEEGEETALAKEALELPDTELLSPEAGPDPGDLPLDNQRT

The term IC50 denotes the concentration needed to halve the response being measured. Usually inhibition stands for the percentage by which the read-out fell short of the control. Take `CCOC(=O)Cn1cc(-c2nc3ccccc3nc2Cl)c2cc(OC)ccc21`: in [1], the Ratio IC50 is 72. The Selectivity ratio in [2] is more than 250. Further, the IC50 in [3] worked out at 0.21 µM; in data set [6], 15.2 µM. In data set [4], this compound came in with an inhibition at 1 h, 100 µM of 20 to 30%. For the same compound, the inhibition in data set [5] is more than 75%.
Turning to `CCOC(=O)/C=C/c1c(-c2nc3ccccc3nc2Cl)c2cc(OC)ccc2n1C(C)C`, the IC50 in [3] turned out to be 5.58 µM. For the same compound, in data set [5], the inhibition is more than 75%.
For the compound `CCCCCCCCc1ccc(CCC(N)(CO)CO)cc1`, the inhibition result in [7] was “Active”.
As to `CCC(C)n1cc(-c2nc3ccccc3nc2Cl)c2cc(OC)ccc21` (stereo unspecified), the Ratio IC50 in [1] turned out to be 4.75. For the same compound, the results for the IC50 in data set [3] and in data set [6] were 1.04 µM and 4.93 µM, respectively. Further, the inhibition in [5] was more than 75%.
The like results for `C=CCn1cc(-c2nc3ccccc3nc2Cl)c2ccccc21` were, in that order, 4.8, 4.67 µM, 22 µM and more than 75%.
Turning to `CN(Cc1cnc2nc(N)nc(N)c2n1)c1ccc(C(=O)N[C@@H](CCC(=O)O)C(=O)O)cc1`, in data set [8], the inhibition result is “Active”.
Regarding `C=CCn1cc(-c2ncccc2C#N)c2cc(OC)ccc21`, the IC50 in data set [3] is 1.98 µM. In addition, the inhibition in [5] is more than 75%.
Consider `COc1ccc2c(c1)c(-c1nc3ccccc3nc1Cl)cn2C(C)C`, for which the Ratio IC50 in data set [1] amounted to 11.4. Besides, the figures for the IC50 in [3] and in [6] were 0.44 µM and 5.02 µM, respectively. Also, in data set [5], the inhibition was more than 75%.
As to `CC(C)n1cc(-c2nc3ccccc3nc2Cl)c2cc(Br)ccc21`, in data set [3], the IC50 came to 9.74 µM. In addition, in data set [5], the inhibition is more than 75%.
Turning to `COC(=O)/C=C/c1[nH]c2ccccc2c1-c1nc2ccccc2nc1Cl`, the IC50 in data set [3] turned out to be 3.88 µM. Moreover, in data set [5], the inhibition is more than 75%.
Take `CCOc1cc([C@@H](CS(C)(=O)=O)N2C(=O)c3cccc(NC(C)=O)c3C2=O)ccc1OC`: the inhibition worked out at 8% in data set [9]; 91% in [10]; 58% in data set [11]; 89% in [12]; 57% in [13]; 13% in data set [14].
As to `COC(=O)/C=C/c1c(-c2nc3ccccc3nc2Cl)c2cc(OC)ccc2n1C(C)C`, in data set [3], the IC50 was determined as 5.97 µM. The inhibition in data set [5] was more than 75%.
